Residues, ends and D or L forms follow the SMILES beside them. *: point of attachment. Cbz = O=C(OCc1ccccc1)*
How the values were obtained:
[1] = system: MOLT-4 T-ALL cells; experiment: Potency against MOLT-4 T-ALL cells in vitro; assay type: cell-based; details: Homo sapiens
[2] = system: RS4 B-ALL cells; experiment: Potency against RS4 B-ALL cells in vitro; assay type: cell-based
[3] = system: BCL-xL/BCL-2; experiment: Blocking of WH244-induced BCL-xL/BCL-2 degradation in Jurkat cells (immunoblot); assay type: cell-based, human; details: for Effect of proteasome / NEDD8-activating enzyme inhibition on WH244-mediated degradation of BCL-xL and BCL-2: Jurkat cells
Method: The data are presented as mean ± s.d. from three replicate cell cultures in a representative experiment for Jurkat cells. h Left, WH244 induces polyubiquitination of WT, K22R BCL-2 and to some extent K17R but not K17/22R BCL-2 in 293T cells. 293T cells were co-transfected as indicated with Flag-BCL−2 WT or mutants and HA-tagged ubiquitin (HA-Ub) plasmids. After 36 h, cells were pretreated with MG132 (10 µM) for 2 h and then treated with or without WH244 (1 μM) for 5 h. The Flag-tagged proteins were immunoprecipitated (IP) and immunoblotted with HA or Flag antibody. Right, The input blot for this assay. Data are a representative of two independent experiments. Source data are provided as Source Data file.
A series of experiments were performed to assess the efficacy of WH244. […] These DC50 values were ~6.2 and 6.8-fold better than of 753b for BCL-xL (DC50 of 3.7 nM) and BCL-2 (DC50 of 50 nM), respectively. Also, WH244-mediated proteolysis of BCL-xL and BCL-2 was time-dependent with BCL-xL degrading faster than BCL-2 (Fig. 3c). […]
Cells were collected, washed once with ice-cold phosphate-buffered saline, pH 7.2 (PBS, cat. no. 20012027; Thermo Fisher Scientific) and lysed in RIPA lysis buffer (Cat. No. BP-115DG, Boston Bio Products, Ashland, MA, USA) supplemented with protease and phosphatase inhibitor cocktails (Cat. No. PPC1010, Sigma-Aldrich, St. Louis, MO, USA) through sonication. […] The protein concentration in the supernatants was determined using the Pierce BCA protein Assay kit (cat. no. 23225, Thermo Fisher Scientific). […] The membranes were blocked with non-fat dry milk (5% wt/vol) in 1×Tris- buffered saline-Tween-20 (TBST) for 1 h at room temperature, and were subsequently probed with primary antibodies at a pre-determined optimal concentration in non-fat dry milk (5% wt/vol in TBST) overnight at 4 °C. […] Following sufficient washing with TBST, the membranes were exposed with ECL Western Blotting Substrate (Bio-Rad), and the signal was detected using the ChemiDoc MP Imaging System (Bio-Rad) and quantified using the ImageJ (v1.53a) software from NIH. […]

[4] = system: human platelets; experiment: Potency against human platelets in vitro; assay type: cell-based; details: Platelet; human platelets in vitro
[5] = system: BCL-xL and BCL-2; set-up: method as in Khan S et al. Nat Med, 25: 1938-1947, 2019; details: ref Khan S et al. Nat Med, 25: 1938-1947, 2019; cited from earlier work

Q: What does the source list for `CC1(C)CCC(c2ccc(Cl)cc2)=C(CN2CCN(c3ccc(C(=O)NS(=O)(=O)c4ccc(N[C@H](CCN5CCOCC5)CSc5ccccc5)c(S(=O)(=O)C(F)(F)F)c4)cc3)CC2)C1` [ABT263, Navitoclax]?
A: IC50 [1]: 220 nM; IC50 [2]: 38 nM; Effect of pretreatment on degradation of BCL-xL and BCL-2 with WH244 ([3]; two hours pretreatment, then six-hour WH244, Jurkat cells): completely blocked; IC50 [4]: 310 nM

Q: For `CC(C)C[C@@H](C=O)NC(=O)[C@H](CC(C)C)NC(=O)[C@H](CC(C)C)NC(=O)OCc1ccccc1` [MG132] (Cbz-Leu-Leu-Leu-aldehyde), which “Effect of proteasome / NEDD8-activating enzyme inhibition on WH244-mediated degradation of BCL-xL and BCL-2” value [3] is on record?
A: The value was “abrogated”.

Q: For `Cc1ncsc1-c1ccc([C@H](C)NC(=O)[C@@H]2C[C@@H](O)CN2C(=O)[C@@H](NC(=O)CCCCCC(=O)N2CCN(CC[C@H](CSc3ccccc3)Nc3ccc(S(=O)(=O)NC(=O)c4ccc(N5CCN(CC6=C(c7ccc(Cl)cc7)CCC(C)(C)C6)CC5)cc4)cc3S(=O)(=O)C(F)(F)F)CC2)C(C)(C)C)cc1` [DT2216], which “Reduction in binding affinity to BCL-xL and BCL-2 on converting ABT263 into DT2216” value [5] is on record?
A: The value was “about 8 fold”.

Q: With `NS(=O)(=O)OC[C@@H]1C[C@@H](n2ccc3c(N[C@H]4CCc5ccccc54)ncnc32)C[C@@H]1O` [MLN4924] as the molecule, how does the “Effect of proteasome / NEDD8-activating enzyme inhibition on WH244-mediated degradation of BCL-xL and BCL-2” value [3] read?
A: Its value is “abrogated”.

Reference: publication PMC10979003, “Development and crystal structures of a potent second-generation dual degrader of BCL-2 and BCL-xL” (Nature Communications, 2024)
